Results: PubChem BioAssay AID463203 (Broad Institute, 2010)
Active and inactive are the calls of the source.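 Rule for the calls: active = more than half of replicate measurements showing over 20% loss of kinase signal relative to plate controls; inconclusive = some but at most half of replicates over 20% loss; inactive = no replicate over 20% signal loss.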

Target: Glycogen synthase kinase-3 alpha (Homo sapiens) (UniProt P49840)
Assay: concentration-response blocking of human GSK3A – biochemical, luminescence, cell-free homogeneous, retest, dose response (AID 463203)
Conditions: GSK-3 alpha enzyme, ADP-Glo luminescence, 60 min

Sequence of Glycogen synthase kinase-3 alpha (Homo sapiens) (P49840 whole entry, looked up): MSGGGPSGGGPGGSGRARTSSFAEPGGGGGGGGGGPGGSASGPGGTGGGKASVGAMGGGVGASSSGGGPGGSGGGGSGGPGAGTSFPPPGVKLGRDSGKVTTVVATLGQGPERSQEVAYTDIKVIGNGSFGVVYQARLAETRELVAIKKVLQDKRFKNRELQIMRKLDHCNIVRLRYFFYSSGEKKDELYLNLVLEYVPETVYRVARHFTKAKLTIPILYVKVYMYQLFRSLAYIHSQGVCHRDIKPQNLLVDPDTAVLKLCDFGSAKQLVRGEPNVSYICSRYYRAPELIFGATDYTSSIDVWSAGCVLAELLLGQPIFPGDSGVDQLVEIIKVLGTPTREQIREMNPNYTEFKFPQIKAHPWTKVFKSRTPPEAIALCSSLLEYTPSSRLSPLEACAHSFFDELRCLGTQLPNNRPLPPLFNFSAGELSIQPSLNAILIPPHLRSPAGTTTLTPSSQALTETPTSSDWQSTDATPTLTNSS

| Compound | AC50 |
| --- | --- |
| Cn1c(SCc2cnc(-c3ccccc3)s2)nnc1C1COc2ccccc2O1 (centres undefined) | > 30 µM (inactive) |
| Cc1cnn(-c2cc(N/N=C/c3ccc(F)cc3)ncn2)c1 | > 30 µM (inactive) |
| Oc1ccc2oc3c(c2c1/C=N/n1cnnc1)CCCC3 | > 30 µM (inactive) |
| O=C1C(SCCO)=C(SCCO)C(=O)c2ccccc21 | > 30 µM (inactive) |
| S=C(NCCC1=CCCCC1)Nc1ccccc1 | > 30 µM (inactive) |
| COC(=O)c1ccc2c(=O)[nH]c(COC(=O)c3cccc(S(=O)(=O)N4CCOCC4)c3)nc2c1 | 6.88 µM |
| O=c1[nH]c2c(s1)C(c1ccco1)C1C3CCC(C3)C1S2 (centres undefined) | 15.3 µM |
| CC(=O)c1sc(NC(=O)CN2C(=O)NC3(CCCC3)C2=O)nc1-c1ccccc1 | 20.7 µM |
| CN(c1nc2nonc2nc1NC1CC1)C1CCOC1 (centres undefined) | > 30 µM (inactive) |
| COc1ccc(CC(=S)N2CCOCC2)cc1OC | > 30 µM (inactive) |
| Nc1nonc1-n1nnc(C(=O)N/N=C/c2ccccc2Cl)c1-c1ccccc1 | > 30 µM (inactive) |
| CCSc1nc2c(c(=O)[nH]1)C(c1ccc(C)cc1)C1=C(CCCC1=O)N2 (centres undefined) | > 30 µM (inactive) |
| O=C(CSc1nnc(SCC(=O)c2ccco2)s1)c1ccco1 | > 30 µM (inactive) |
| COc1ccccc1-c1noc(CSc2nc(N)cc(=O)[nH]2)n1 | > 30 µM (inactive) |
| O=C(OCC1OC2OC3(CCCCC3)OC2C2OC3(CCCCC3)OC12)c1ccccc1 (centres undefined) | > 30 µM (inactive) |
| O/N=C1/CC/C(=N\O)c2nn(-c3ccccc3)nc21 | 25.3 µM |
| Oc1[nH]c2ccc(Br)cc2c1N=Nc1nn[nH]n1 | 23.3 µM |
| CC1=C(C(=O)OC(C)C)C(c2cccs2)n2ncnc2N1 (centres undefined) | 28.8 µM |
| CC(C)N1C(=O)/C(=C/C=C/c2ccco2)C(=O)N(Cc2ccco2)C1=O | > 30 µM (inactive) |
| CC1(C)Cc2cccc(C(=O)NCc3ccco3)c2O1 | > 30 µM (inactive) |
| CCN1CCN(c2nc(N)c([N+](=O)[O-])c(Nc3ccc(C)cc3)n2)CC1 | > 30 µM (inactive) |
| Cc1cccc(OCC(=O)Nc2ccc3c(c2)C(=O)NC3=O)c1 | > 30 µM (inactive) |
| NC(=O)Cn1cc(/C=N\NS(=O)(=O)c2cccc([N+](=O)[O-])c2)c2ccccc21 | > 30 µM (inactive) |
| COC(=O)c1sc2cnccc2c1N | 24.8 µM |
| N#CC1=C2SCN(c3ccc(F)cc3)CN2C(=O)CC1c1cccc(F)c1 (centres undefined) | 29.4 µM |
| CC1(C)Cc2cccc(C(=O)Nc3ccncc3)c2O1 | 5.8 µM |

| Compound | AC50 |
| --- | --- |
| O=C(O)c1ccc(Cl)c(NC(=O)C2CCCN2S(=O)(=O)c2cccc3nsnc23)c1 (centres undefined) | 19.1 µM |
| Cc1ccnc(SCC(=O)Nc2sc3c(c2C#N)CCCC3)n1 | > 30 µM (inactive) |
| O=C(Nc1ccc(Cl)c([N+](=O)[O-])c1)c1ccc(NCCCN2CCOCC2)c([N+](=O)[O-])c1 | > 30 µM (inactive) |
| NCc1cccc(CNc2ccc([N+](=O)[O-])cc2C(N)=O)c1 | 5.96 µM |
| CC(=O)c1cc(-c2ccc(F)cc2)n(CCC(=O)Nc2cccnc2)c1C | > 30 µM (inactive) |
| CCOc1c(O)ccc(/C=C2\SC(=S)NC2=O)c1[N+](=O)[O-] | 20.8 µM |
| CCc1ccc(C2CC(c3ccc(F)cc3)Nc3nc(N)nn32)cc1 (centres undefined) | > 30 µM (inactive) |
| Cc1nc2ncnn2c(C)c1Cc1ccccc1Cl | > 30 µM (inactive) |
| COc1cccc(-c2cc(C(=O)N3CCN(c4ccccc4OC)CC3)no2)c1 | > 30 µM (inactive) |
| Cc1cc(C)n(CCC(=O)N=Nc2c(O)[nH]c3ccc(Br)cc23)n1 | 11.5 µM |
| CN1/C(=C\C=C\C2=[N+](C)c3ccc4ccccc4c3C2(C)C)C(C)(C)c2ccccc21 | 10.3 µM |
| Nc1nc(N)nc(-c2cc(O)ccc2O)n1 | 11.8 µM |
| O=C(O)CCCNc1ccc([N+](=O)[O-])c(NCCCC(=O)O)n1 | > 30 µM (inactive) |
| O=C(Nc1cc(F)cc(F)c1)c1ccc(NCCCN2CCCCCC2)c([N+](=O)[O-])c1 | > 30 µM (inactive) |
| COc1ccc(C(=O)NC(=O)CSc2nnc(-c3ccco3)n2-c2ccccc2)cc1 | > 30 µM (inactive) |
| COc1ccc(C(CNc2ccc(S(=O)(=O)N3CCCC3)cc2[N+](=O)[O-])N2CCCC2)cc1 (centres undefined) | > 30 µM (inactive) |
| CCN(CC)CCNC(=O)c1ccc(NC(=O)C2CCN(c3ncnc4sc(C)c(C)c34)CC2)cc1 | 22.8 µM |
| Clc1ccc(-c2nnc(SCc3nc(-c4ccccc4)no3)o2)cc1 | > 30 µM (inactive) |
| CCOC(=O)c1cnc2ccc(OCC)cc2c1N1CCN(c2ccccc2OC)CC1 | 3.95 µM |
| COC(=O)c1c(NC(=O)CN2C(=O)NC3(CCC(C)CC3)C2=O)sc2c1CCC2 (centres undefined) | > 30 µM (inactive) |
| CNC(=O)CSc1nnc(-c2ccco2)n1-c1cccc(OC)c1 | > 30 µM (inactive) |
| CC(=O)Nc1cccc(-c2csc(Nc3ccccn3)n2)c1 | > 30 µM (inactive) |
| O=c1[nH]cnc(O)c1N=Nc1ccccc1 | 9.87 µM |
| CCOC(=O)c1cc(C)[nH]c1C | > 30 µM (inactive) |
| COc1ccc(-c2csc3ncnc(NCCCO)c23)cc1 | 20.6 µM |
| COc1cc(-c2[nH]nc3c2C(c2ccoc2)C(C#N)=C(N)O3)cc(OC)c1OC (centres undefined) | 26.1 µM |

| Compound | AC50 |
| --- | --- |
| COCCNc1cc(N)c([N+](=O)[O-])cc1[N+](=O)[O-] | > 30 µM (inactive) |
| CC(C)(C)NC(=O)/C(=C/c1ccccc1F)NC(=O)c1ccc([N+](=O)[O-])cc1 | > 30 µM (inactive) |
| CCCC1=C(C(=O)OCC)C(c2cccnc2)n2nc(C)nc2N1 (centres undefined) | > 30 µM (inactive) |
| COc1cccc(NC(=O)CN(C)C(=O)C23CC4CC(CC(Cl)(C4)C2)C3)c1 | > 30 µM (inactive) |
| O=c1[nH]nc(SCCS(=O)(=O)c2ccc(F)cc2)n1-c1ccccc1 | 22.9 µM |
| CCN(CC)C(=O)c1oc2ccc(S(=O)(=O)N3CCCCCC3)cc2c1C | > 30 µM (inactive) |
| CCCNC(=O)OCCC12CC3CC(CC(C3)C1)C2 | > 30 µM (inactive) |
| Oc1ccc(/C=N/NC(=S)N/N=C/c2ccc(O)cc2)cc1 | 23.5 µM |
| Cc1cc(Nc2ccc(C(=O)O)cc2)nc(N)n1 | > 30 µM (inactive) |
| Cc1nnc(SCC(=O)N2c3ccccc3CC2C)s1 (centres undefined) | > 30 µM (inactive) |
| O=C(Nc1c(C(=O)O)oc2ccc(Br)cc12)c1ccccc1 | 3.44 µM |
| COCCCNc1c2c(nc3nnnn13)CCCC2 | > 30 µM (inactive) |
| COCCCNc1ncnc2nc[nH]c12 | > 30 µM (inactive) |
| CC(C)COc1ncnc2c1sc1nc3c(cc12)COC(C)(C)C3 | > 30 µM (inactive) |
| Cc1ccc(Cn2cc(/C=N/Nc3ccc([N+](=O)[O-])cn3)c3ccccc32)cc1 | > 30 µM (inactive) |
| COc1ccc(-c2cc(C(=O)N3CCN(c4ccccc4OC)CC3)no2)cc1 | > 30 µM (inactive) |
| COc1cc(/C=N/NC(=O)c2ccncc2)ccc1OCCN1CCCCC1 | > 30 µM (inactive) |
| Nc1nc(N)nc(-c2cc([N+](=O)[O-])ccc2O)n1 | 2.41 µM |
| Nc1nc(Nc2cccc(F)c2)nc(NCc2ccco2)c1[N+](=O)[O-] | 4.08 µM |
| CC(C)OC(=O)/C(C#N)=C/c1c[nH]c2ccccc12 | > 30 µM (inactive) |
| N#CC1=C2SCN(Cc3ccco3)CN2C(=O)CC1c1c(F)cccc1Cl (centres undefined) | > 30 µM (inactive) |
| Cc1ccc2c(c1)Oc1ccc(NC(=O)CCCl)cc1C(=O)N2 | > 30 µM (inactive) |
| Cc1ccc(-c2nnc3n2N=C(c2ccccc2Br)CS3)cc1 | > 30 µM (inactive) |
| O=C(COC(=O)c1cccc(S(=O)(=O)N2CCOCC2)c1)Nc1ccc(Cl)cn1 | 7.3 µM |
| CCOC(=O)c1c(NC(=O)CN2C(=O)NC3(CCCCC3C)C2=O)sc(C)c1CC (centres undefined) | > 30 µM (inactive) |
| C[C@@H]1O[C@@H](O[C@H]2[C@H](O)[C@@H](O)[C@H](Oc3c(-c4ccc(O)c(O)c4)oc4cc(O)cc(O)c4c3=O)O[C@@H]2CO)[C@H](O)[C@H](O)[C@H]1O | > 30 µM (inactive) |

| Compound | AC50 |
| --- | --- |
| c1ccc2[nH]c(C3CC3)nc2c1 | > 30 µM (inactive) |
| CCOC(=O)c1nnn(-c2nonc2N)c1COc1ccc(F)cc1 | 4.9 µM |
| CCN1C(=S)SC(=O)C1=C1C=C(C)N(Cc2ccco2)C(C)=C1 | > 30 µM (inactive) |
| CN1/C(=C\C=C(/C#N)C(=O)Nc2ccccc2F)C(C)(C)c2ccccc21 | > 30 µM (inactive) |
| O=C(CSc1nc2nc(-c3cccs3)cc(C(F)(F)F)c2c(=O)[nH]1)Nc1ccc(F)c(F)c1 | > 30 µM (inactive) |
| COc1ccc(NC(=O)Nc2ccccc2F)c(C)c1 | > 30 µM (inactive) |
| COC(=O)c1cn(-c2ccccc2)nc1-c1cccnc1 | > 30 µM (inactive) |
| COc1ccc(NC(=O)Nc2ccc(F)cc2)c(C)c1 | > 30 µM (inactive) |
| CC(C)(C)N1C(=O)c2ccc(C(=O)O)cc2C1=O | > 30 µM (inactive) |
| Cc1sc2ncnc(NCc3ccco3)c2c1C | > 30 µM (inactive) |
| CN(Cc1c(C(=O)N/N=C/c2ccc(F)cc2)nnn1-c1nonc1N)C1CCCCC1 | > 30 µM (inactive) |
| CC(C)(C)C(=O)c1cnc(Nc2ccccc2Cl)s1 | > 30 µM (inactive) |
| N#Cc1c(-c2ccc(F)cc2)c2c([nH]c1=O)-c1ccccc1OC2 | > 30 µM (inactive) |
| C=CCSc1ncnc2c1oc1nc3c(cc12)COC(C)(C)C3 | > 30 µM (inactive) |
| O=C1NC(=Nc2ccccc2)S/C1=C/c1cccs1 | > 30 µM (inactive) |
| Cn1nnnc1SCC(=O)Nc1nn(-c2ccccc2)nc1C(N)=O | 24.2 µM |
| Clc1ccc(OCc2nnc(SCc3nnc(-c4ccccc4)o3)o2)c(Cl)c1 | > 30 µM (inactive) |
| Cc1ccc(-c2cn3cccnc3n2)cc1NC(=O)c1c(-c2ccccc2Cl)noc1C | > 30 µM (inactive) |
| CN(Cc1c(C(=O)N/N=C/c2ccc(O)cc2)nnn1-c1nonc1N)c1ccccc1 | 0.243 µM |
| O=C(Nc1ccccc1N1CCOCC1)c1cnccn1 | 28.6 µM |
| O=C1c2cccc(O)c2C(=O)c2c(O)cc(CO)cc21 | > 30 µM (inactive) |
| O=C(c1ccc2c3n(nc2c1)-c1ccccc1CO3)N1CCCCC1 | 26.4 µM |
| Cc1cccc(-n2ncc(C#N)c2-n2cccc2)c1 | > 30 µM (inactive) |
| Cc1cccc(-c2nnc3n2N=C(c2ccccc2)CS3)c1 | > 30 µM (inactive) |
| CCOC(=O)Cc1c[nH]c2ccccc12 | > 30 µM (inactive) |
| CCC(C)c1ccc(NC(=S)NCc2cccs2)cc1 (centres undefined) | > 30 µM (inactive) |
